The record followed here is ChEMBL document CHEMBL4359928, “Scaffold Morphing To Identify Novel DprE1 Inhibitors with Antimycobacterial Activity” (ACS Med Chem Lett, 2019).

≈ marks a conversion by molar mass, not a printed value.

Common to all, as to type: functional
Experiment [1] deals with Mycobacterium tuberculosis. Nature of the experiment: Antimycobacterial activity against 1,4-azaindole resistant Mycobacterium tuberculosis H37Rv harbouring DprE1 Y314H mutant assessed as reduction in bacterial cell growth.
Experiment [2] has as its system Mycobacterium tuberculosis. Nature of the experiment: Ratio of MIC for Mycobacterium tuberculosis H37Rv overexpressing DprE1 to MIC for wild type Mycobacterium tuberculosis H37Rv.
The subject of experiment [3] is Mycobacterium tuberculosis. Nature of the experiment: Antimycobacterial activity against BTZ043-resistant Mycobacterium tuberculosis H37Rv harbouring DprE1 C387S mutant assessed as reduction in bacterial cell growth.
For experiment [4], the system named is Mycobacterium tuberculosis. The experiment is described as follows: Antimycobacterial activity against Mycobacterium tuberculosis H37Rv harbouring DprE1 Y314S mutant assessed as reduction in bacterial cell growth.
The test system of experiment [5] is Mycobacterium tuberculosis. The experiment is described as follows: Ratio of MIC for 1,4 azaindole-resistant Mycobacterium tuberculosis H37Rv harboring DprE1 Y314H mutant to MIC for wild type Mycobacterium tuberculosis H37Rv.
The subject of experiment [6] is Mycobacterium tuberculosis. The experiment is described as follows: Antimycobacterial activity against BTZ043-resistant Mycobacterium tuberculosis H37Rv harbouring DprE1 C387G mutant assessed as reduction in bacterial cell growth.
In experiment [7] the test system is Mycobacterium tuberculosis. Nature of the experiment: Antimycobacterial activity against Mycobacterium tuberculosis H37Rv overexpressing DprE1 assessed as reduction in bacterial cell growth.
The mark [8] stands for this setting: Mycobacterium tuberculosis, H37Rv, read-out: MIC.

Take `COc1ncnc(Cn2cnc3c(C(=O)NCCF)cccc32)c1C`: the MIC in experiment [1] was 25 to 50 µM; in experiment [3], 0.78 µM (≈ 0.268 µg/mL); in experiment [4], 25 µM (≈ 8.58 µg/mL); in experiment [6], 0.78 µM (≈ 0.268 µg/mL); in experiment [7] (setting [8]) it was 25 to 50 µM (≈ 8.58 to 17.2 µg/mL). Also, the Ratio in experiment [2] and in experiment [5] was 20 each time.
With `C[C@H]1COC2(CCN(c3nc(=O)c4cc(C(F)(F)F)cc([N+](=O)[O-])c4s3)CC2)O1` [BTZ-043], the minimal inhibitory concentration (MIC) in experiment [1] came to 0.003 µM (≈ 0.00129 µg/mL); in experiment [3], 25 µM (≈ 10.8 µg/mL); in experiment [4], 0.006 µM (≈ 0.00259 µg/mL); in experiment [6] it was 25 µM (≈ 10.8 µg/mL); in experiment [7] it was 12.5 µM (≈ 5.39 µg/mL).
On to `NNC(=O)c1ccncc1` [ISONIAZID], for which the MIC was found to be 0.44 µM (≈ 0.0603 µg/mL) in experiment [1]; 0.44 µM (≈ 0.0603 µg/mL) in experiment [3]; 0.22 µM (≈ 0.0302 µg/mL) in experiment [4]; 0.44 µM (≈ 0.0603 µg/mL) in experiment [6]; 0.22 µM (≈ 0.0302 µg/mL) in experiment [7] (setting [8]).
On to `CO[C@H]1/C=C/O[C@@]2(C)Oc3c(C)c(O)c4c(O)c(c(/C=N/N5CCN(C)CC5)c(O)c4c3C2=O)NC(=O)/C(C)=C\C=C\[C@H](C)[C@H](O)[C@@H](C)[C@@H](O)[C@@H](C)[C@H](OC(C)=O)[C@@H]1C` [RIFAMPIN], for which the MIC in experiment [3], in experiment [6] and in experiment [7] (setting [8]) was 0.005 µM (≈ 0.00411 µg/mL) each time.

By MIC is commonly meant the lowest concentration that inhibits growth of the organism.
